The text below walks through data of patent publication US20100056507A1, “PHENYL DERIVATIVES AND THEIR USE AS A MEDICAMENT” (IPSEN PHARMA S.A.S., priority 2006, published 2010).

Like-named read-outs stand apart in the source and are kept apart here.

For the assay, the target named is T1, human CB2 receptors (Homo sapiens, UniProt P34972).
T1 construct: expressed in transfected cells; membranes used
Put plainly: Affinity for the human CB2 cannabinoid receptors: inhibition of [3H]-CP55940 binding to transfected CHO-K1 cell membranes. To be noted: [3H]-CP55940 1 nM, CHO-K1 membranes expressing human CB2, Cheng-Prusoff correction. The method, then:
The affinity of the compounds of the invention for the human CB2 receptors is determined by measuring the inhibition of the binding of [^3H]-CP55940 to transfected CHO-K1 cell membrane preparations.
The cells are collected with 0.5 mM of EDTA and centrifuged at 500 g for 5 minutes at 4° C. The pellet is re-suspended in phosphate buffered saline medium (PBS) and centrifuged at 500 g for 5 minutes at 4° C. The pellet is re-suspended in a Tris 50 mM buffer medium at pH 7.4 and centrifuged at 500 g for 5 minutes at 4° C. The cells are lysed by sonication and centrifuged at 39,000 g for 10 minutes at 4° C. The pellet is re-suspended in the Tris 50 mM buffer medium at pH 7.4 and centrifuged at 50,000 g for 10 minutes at 4° C. The membranes obtained in this last pellet are stored at −80° C.
Measurement of the competitive inhibition of the binding of the [^3H]-CP55940 to the CB2 receptors is carried out in duplicate using 96-well polypropylene plates. The cell membranes (10 μg of proteins/well) are incubated with the [^3H]-CP55940 (1 nM) for 60 minutes at 25° C. in a Tris-HCl 50 mM buffer medium, pH 7.4, comprising 0.1% bovine serum albumin (BSA), 5 mM of MgCl2, and 50 μg/ml of bacitracin.
The filters are washed with Tris-HCl 50 mM buffer, pH 7.4 at 0-4° C. and the radioactivity present is determined using a counter (Packard Top Count).
The specific binding is obtained by subtracting the non-specific binding (determined in the presence of 0.1 μM of WIN55212-2 from the total binding). The data are analyzed by computer-assisted non-linear regression (MDL). For each test, a Cheng-Prusoff correction is made in order to convert the IC50 to the inhibition constant, Ki.
where [L] is the concentration of the radioligand used in the test and Kd is the radioligand equilibrium disassociation constant.

T1 sequence (P34972 whole entry): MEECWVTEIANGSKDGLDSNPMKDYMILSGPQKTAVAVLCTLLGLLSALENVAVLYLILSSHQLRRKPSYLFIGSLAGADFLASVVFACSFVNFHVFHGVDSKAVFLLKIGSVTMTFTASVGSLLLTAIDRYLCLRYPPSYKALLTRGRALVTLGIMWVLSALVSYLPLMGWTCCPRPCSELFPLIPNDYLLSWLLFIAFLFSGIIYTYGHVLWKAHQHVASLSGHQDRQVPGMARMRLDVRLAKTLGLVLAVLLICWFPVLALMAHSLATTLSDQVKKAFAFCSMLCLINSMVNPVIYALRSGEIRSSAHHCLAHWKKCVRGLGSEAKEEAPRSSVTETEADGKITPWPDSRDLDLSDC

As usually defined, the Ki is the equilibrium dissociation constant of an inhibitor or competing ligand from its target. Regarding `O=C(OCCc1ccc(NC(=O)C2CCC2)cc1)c1ccc2c(c1)CCCC2` [Example 15], the Ki (read-out: Ki < 0.5 μM) was less than 0.5 µM and the inhibition constant (Ki) (read-out: Ki < 5 μM) was less than 5 µM.

For `CC1(C)CCC(C)(C)c2cc(C(=O)OCCc3ccc(NC(=O)CC4CCCC4)cc3)ccc21` [Example 66], the Ki (read-out: Ki < 0.5 μM) is less than 0.5 µM and the inhibition constant (Ki) (read-out: Ki < 5 μM) is less than 5 µM.
